Measured values published in DBAASP.
≈ marks a conversion by molar mass, not a printed value. One block for each compound: values may come before it.

Columns and labels:
Test in all cases: ≥ marks a high value that may be exact or a test limit, other limits are often not marked, values filed in µg/mL are converted to µM
[1] = system: Candida albicans IHEM 8060
Candida glabrata = system: Candida glabrata
[2] = system: Bacillus licheniformis X39
[3] = system: Psychrobacter faecalis X29
[4] = system: Rhodococcus rhodochrous X15
[5] = system: Staphylococcus aureus ATCC 2592
[6] = system: Staphylococcus carnosus KHS
Acinetobacter baumannii = system: Acinetobacter baumannii
[7] = system: Bacillus cereus ATCC 11778
[8] = system: Enterococcus faecalis ATCC 29212
[9] = system: Escherichia coli ATCC 25922
Escherichia coli O157:H7 = system: Escherichia coli O157:H7
[10] = system: Listeria monocytogenes 10403s
[11] = system: Pseudomonas aeruginosa ATCC 27853
[12] = system: Salmonella enterica subsp. enterica serovar Typhimurium ATCC 13311
[13] = system: Shigella sonnei ATCC 11060
[14] = system: Staphylococcus aureus ATCC 25923
[15] = system: Staphylococcus epidermidis ATCC 12228
Vibrio cholerae O1 Inaba = system: Vibrio cholerae O1 Inaba
Pseudomonas aeruginosa 1 = system: Pseudomonas aeruginosa 1
Pseudomonas aeruginosa = system: Pseudomonas aeruginosa
[16] = system: Staphylococcus aureus 1056
[17] = system: Candida albicans ATCC 10231
[18] = system: Klebsiella aerogenes ATCC 13048
[19] = system: Staphylococcus aureus ATCC 29231
[20] = system: Staphylococcus aureus MW2
[21] = system: Bacillus subtilis IFO 3336
[22] = system: Escherichia coli IFO 3301

Compound: CC[C@H](C)[C@H](NC(=O)[C@H](CCCN=C(N)N)NC(=O)[C@H](CCCCN)NC(=O)[C@H](C)NC(=O)[C@@H](NC(=O)[C@@H](N)CCCCN)[C@@H](C)CC)C(=O)N[C@@H](Cc1c[nH]c2ccccc12)C(=O)N[C@@H](CCCCN)C(=O)N[C@H](C(=O)N[C@@H](CC(C)C)C(=O)N[C@@H](CCCN=C(N)N)C(=O)N[C@@H](CCCN=C(N)N)C(=O)N[C@@H](CCCN=C(N)N)C(=O)N[C@@H](CC(C)C)C(N)=O)[C@@H](C)CC [KIAKRIWKILRRRL]
MIC (Acinetobacter baumannii): 2.11 µM (≈ 3.91 µg/mL)
MIC [7]: 4.22 µM (≈ 7.81 µg/mL)
MIC [8]: 67.6 µM (≈ 125 µg/mL)
MIC [9]: 8.45 µM (≈ 15.6 µg/mL)
MIC (Escherichia coli O157:H7): ≥ 33.8 µM
MIC [10]: 1.05 µM (≈ 1.95 µg/mL)
MIC [11]: 2.11 µM (≈ 3.91 µg/mL)
MIC [12]: 1.05 µM (≈ 1.95 µg/mL)
MIC [13]: 2.11 µM (≈ 3.91 µg/mL)
MIC [14]: 8.45 µM (≈ 15.6 µg/mL)
MIC [15]: 2.11 µM (≈ 3.91 µg/mL)
MIC (Vibrio cholerae O1 Inaba): 4.22 µM (≈ 7.81 µg/mL)

Compound: CC(C)C[C@@H]1NC(=O)[C@H](Cc2cnc[nH]2)NC(=O)[C@H](C)NC(=O)[C@@H]2CCCN2C(=O)[C@@H]2CSSC[C@@H](C(=O)N[C@@H](CCCCN)C(=O)N[C@@H](Cc3c[nH]c4ccccc34)C(=O)N3CCC[C@H]3C(=O)N[C@@H](Cc3c[nH]c4ccccc34)C(=O)N[C@@H](CC(=O)O)C(=O)N[C@H](C(=O)O)C(C)C)NC(=O)[C@@H]3CSSC[C@H](NC(=O)[C@H](Cc4ccccc4)NC(=O)[C@@H](N)CC(C)C)C(=O)N[C@@H](CCCN=C(N)N)C(=O)N[C@@H](CCCCN)C(=O)NCC(=O)N[C@@H]([C@@H](C)O)C(=O)N[C@@H](CSSC[C@H](NC(=O)[C@H](CO)NC(=O)CNC(=O)[C@H](C(C)C)NC(=O)[C@H](CCCCN)NC(=O)[C@H](C(C)C)NC1=O)C(=O)N[C@@H](Cc1ccccc1)C(=O)NCC(=O)N[C@@H](Cc1ccccc1)C(=O)N[C@@H](CCCN=C(N)N)C(=O)N[C@@H](C)C(=O)N3)C(=O)N[C@@H](Cc1cnc[nH]1)C(=O)N[C@@H](Cc1ccccc1)C(=O)NCC(=O)NCC(=O)N2 [LFCRKGTCHFGGCPAHLVKVGSCFGFRACCKWPWDV]
MIC (Escherichia coli O157:H7): 0.321 µM (≈ 1.29 µg/mL)
MIC [16]: 0.291 µM (≈ 1.17 µg/mL)

Compound: NC(N)=NCCC[C@H](NC(=O)[C@H](CS)NC(=O)[C@H](CCCN=C(N)N)NC(=O)[C@H](CS)NC(=O)[C@H](CCCN=C(N)N)NC(=O)[C@H](CS)NC(=O)[C@H](CCCN=C(N)N)NC(=O)[C@H](CS)NC(=O)[C@@H](N)CCCN=C(N)N)C(=O)N[C@@H](CS)C(=O)O [RCRCRCRCRC]
MIC [21]: 7.61 µM (≈ 10 µg/mL)
MIC [22]: 15.2 µM (≈ 20 µg/mL)

Second part, led by results:

MIC [1]: 17.3 µM (≈ 63.9 µg/mL)
MIC (Candida glabrata): 17.3 µM (≈ 63.9 µg/mL)
Compound: CC[C@H](C)[C@@H]1NC(=O)[C@@H](N)CSSC[C@@H]2NC(=O)[C@@H]3CSSC[C@@H](C(=O)N[C@@H](CCCN=C(N)N)C(=O)O)NC(=O)[C@H](Cc4ccc(O)cc4)NC(=O)CNC(=O)[C@H](C)NC(=O)[C@H](C(C)C)NC(=O)[C@H](Cc4c[nH]c5ccccc45)NC(=O)CNC(=O)[C@@H]4CCCN4C(=O)[C@H](CCC(=O)O)NC(=O)[C@H](CCCCN)NC(=O)[C@H](Cc4cnc[nH]4)NC(=O)[C@H](CSSC[C@H](NC(=O)CNC(=O)[C@H](CC(N)=O)NC(=O)CNC(=O)[C@H](CC(N)=O)NC(=O)[C@H](CCCCN)NC1=O)C(=O)N[C@@H](CCC(N)=O)C(=O)N1CCC[C@H]1C(=O)N[C@@H](CC(=O)O)C(=O)NCC(=O)N[C@@H](CO)C(=O)N[C@@H](CCC(N)=O)C(=O)NCC(=O)N[C@@H](CC(N)=O)C(=O)N3)NC(=O)[C@H](Cc1ccc(O)cc1)NC(=O)[C@H](CCCN=C(N)N)NC(=O)[C@H](CO)NC2=O [CIKNGNGCQPDGSQGNCCSRYCHKEPGWVAGYCR]

MIC [2]: 9.8 µM (≈ 25 µg/mL)
MIC [3]: 4.9 µM (≈ 12.5 µg/mL)
MIC [4]: 1.22 µM (≈ 3.1 µg/mL)
MIC [5]: 1.22 µM (≈ 3.1 µg/mL)
MIC [6]: 4.9 µM (≈ 12.5 µg/mL)
Compound: CC[C@H](C)[C@@H]1NC(=O)[C@H](CCCCN)NC(=O)[C@@H](NC(=O)[C@H](Cc2ccccc2)NC(=O)[C@H](CC(C)C)NC(=O)[C@@H](NC(=O)[C@@H]2CCCN2C(=O)[C@@H](NC(=O)[C@@H](NC(=O)[C@H](CCCCN)NC(=O)CNC(=O)[C@@H](NC(=O)[C@H](CC(C)C)NC(=O)CNC(=O)[C@H](CC(C)C)NC(=O)[C@H](CC(C)C)NC(=O)[C@H](CO)NC(=O)CNC(=O)[C@H](CC(C)C)NC(=O)[C@@H](N)Cc2ccccc2)C(C)C)C(C)C)C(C)C)[C@@H](C)O)CSSC[C@@H](C(=O)O)NC(=O)[C@H](CCCCN)NC(=O)[C@H](CCCCN)NC(=O)[C@H](CO)NC1=O [FLGSLLGLVGKVVPTLFCKISKKC]

MIC (Acinetobacter baumannii): 4.5 µM (≈ 7.81 µg/mL)
MIC [7]: 9 µM (≈ 15.6 µg/mL)
MIC [8]: 144 µM (≈ 250 µg/mL)
MIC [9]: 18 µM (≈ 31.2 µg/mL)
MIC (Escherichia coli O157:H7): 18 µM (≈ 31.2 µg/mL)
MIC [10]: 2.25 µM (≈ 3.91 µg/mL)
MIC (Pseudomonas aeruginosa 1): 2.25 µM (≈ 3.91 µg/mL)
MIC (Pseudomonas aeruginosa): 4.5 µM (≈ 7.81 µg/mL)
MIC [12]: 1.12 µM (≈ 1.95 µg/mL)
MIC [13]: 2.25 µM (≈ 3.91 µg/mL)
MIC [14]: 36 µM (≈ 62.5 µg/mL)
MIC [15]: 2.25 µM (≈ 3.91 µg/mL)
Compound: CC[C@H](C)[C@H](NC(=O)[C@H](CCCN=C(N)N)NC(=O)[C@H](CCCCN)NC(=O)[C@H](C)NC(=O)[C@@H](NC(=O)[C@@H](N)CCCCN)[C@@H](C)CC)C(=O)N[C@@H](Cc1c[nH]c2ccccc12)C(=O)N[C@@H](CCCCN)C(=O)N[C@H](C(=O)N[C@@H](CC(C)C)C(=O)N[C@@H](CCCN=C(N)N)C(=O)N[C@@H](CCCN=C(N)N)C(=O)N[C@@H](CCCN=C(N)N)C(N)=O)[C@@H](C)CC [KIAKRIWKILRRR]
MIC (Vibrio cholerae O1 Inaba): 18 µM (≈ 31.2 µg/mL)

MIC [17]: 29.3 µM (≈ 64 µg/mL)
MIC [18]: ≥ 58.6 µM
MIC [19]: 7.33 µM (≈ 16 µg/mL)
MIC [20]: 14.7 µM (≈ 32 µg/mL)
Compound: CC[C@H](C)[C@H](NC(=O)[C@H](CCCCN)NC(=O)[C@H](CCCCN)NC(=O)[C@H](CC(C)C)NC(=O)[C@@H](NC(=O)[C@H](CCCCN)NC(=O)[C@H](Cc1c[nH]c2ccccc12)NC(=O)[C@@H](N)CC(C)C)[C@@H](C)CC)C(=O)N[C@@H](Cc1c[nH]c2ccccc12)C(=O)N[C@@H](CCCN=C(N)N)C(=O)N[C@H](C(=O)NCC(=O)N[C@@H](Cc1c[nH]c2ccccc12)C(=O)N[C@@H](CC(N)=O)C(=O)N[C@@H](Cc1c[nH]c2ccccc12)C(=O)N[C@@H](CCCN=C(N)N)C(=O)O)C(C)C [LWKILKKIWRVGWNWR]
